Experimental data as given in patent publication US20230090255A1, “MAGL INHIBITOR, PREPARATION METHOD THEREFOR AND USE THEREOF” (LUNAN PHARMACEUTICAL GROUP CORPORATION, priority 2019, published 2023).

Columns and labels:
[1] = system: mice with inflammatory pain; assay: Pain threshold of mice with inflammatory pain (complete Freund's adjuvant); format: in vivo, SD mice; details: for Pain threshold: complete Freund's adjuvant paw model
Description: […] (180±20) g were injected with a complete Freund’s adjuvant (50 µL/piece) at the right rear plantar of mice, and mice in the control group were injected with the corresponding volume of 0.5% sodium carboxymethylcellulose to establish a paw edema inflammatory pain model. After modeling, the mice were administered for 7 d continuously, and administered intragastrically once per day. Pain thresholds (s) of the mice were respectively determined on the 1st, 3rd and 7th day before administration and after modeling at different periods of time.
Grouping and administration were the same as those of Example 40.

ulcerative colitis mice = assay: Mice ulcerative colitis (DSS); format: in vivo, BALB/c mice; details: for Total times of hematochezia within the four periods / Colon length / IL-1 content: DSS mice; for Colon length: four periods; for IL-1 content: serum, ELISA
From the text: Healthy male SPF-level BALB/c mice (8-week old and body mass: (20±2) g).
Modeling: the mice were randomly divided into […] at the end of the quarantine, 10 pieces for each group. The mice in the normal group drank normal water freely, and the rest groups of mice drank 1.0%-1.5% DSS solution freely for modeling, 7 d later after modeling, the mice in the modeling group drank normal water freely for 7 d, and 14 d served as a modeling period for four continuous periods, and the mice in the modeling group were administered at the same time.
End point of the experiment: experimental administration was performed for four periods, and dissection was performed on the 3rd and 4th day of the recovery period of the 4th period.
Test indicators: the mice were weighed twice a week after the beginning of the administration; diarrhea and hematochezia of the mice were observed, and times of hematochezia were recorded.
At the end of the experiment, the mice were dissected and weighed, and narcotized to take blood, then serum was preserved at -80° C. Spleen was taken and weighed to calculate the spleen index. The content of IL-1β in serum was detected via ELISA. Colorectum was cut and taken to measure the length of colorectum, then immobilized by formaldehyde and dyed by HE to detect the pathological change.

[2] = system: mice pain response induced by hot plate; assay: Mice pain response induced by hot plate; format: in vivo, ICR mice; details: for Pain threshold: hot plate 55°C
Description: Female ICR mice (20±2) g were placed on an intelligent hot plate at 55±0.5° C., and latency (s) that the plantar of mice touched the hot plate until the occurrence of a hind paws licking response served as a pain threshold indicator; the mice (response latency <5 s or >30 s) or jumping mice were eliminated.
Grouping and administration were the same as those in Example 40.
The mice were continuously administered intragastrically for 7 consecutive days; the pain threshold of each group of mice was respectively determined once at 30, 60, 90 and 120 min after the final administration; the pain threshold greater than 60 s was calculated by 60 s.

[3] = system: mice writhing caused by acetic acid; assay: Mice writhing caused by acetic acid; details: for Writhing times: 1 h before 0.7% acetic acid ip, within 20 min; for Latent time: time to first writhing; for Inhibition ratio: writhing inhibition
Description: Each compound was prepared into a suspension by 0.5% sodium carboxymethylcellulose respectively, and then set according to the dose, and each administration group was administered intragastrically; the model group was administered intragastrically an equal volume of 0.5% sodium carboxymethylcellulose.
Mice were intraperitoneally injected with acetic acid to cause a large area and more lasting painful stimuli in deep enterocoelia, causing mice to produce writhing responses. After being administered for 1 h, each dose group was intraperitoneally injected with 0.7% acetic acid-normal saline solution (0.1 ml/10 g).
The time (pain latent time) that the mice started to appear writhing after being intraperitoneally injected with acetic acid was recorded.
The writhing response times of each mouse within 20 min were recorded after injecting acetic acid to cause pain, and then, the writhing inhibition ratio of each administration group was calculated.
Writhing inhibition ratio = [(writhing times of the control group -writhing times of the administration group)/writhing times of the control group] × 100%
Experimental data is shown by x±s and subjected to variance analysis by SPSS 15.0 software.

[4] = system: irritable bowel syndrome rats; assay: Irritable bowel syndrome rats induced by early maternal separation; format: in vivo, SD rats; design: AWR scoring: scale not given here; details: for Colon 5-HT / Serum 5-HT / AWR scoring: IBS rats
Description: The newborn SD male rats were separated from the mother rat in lactation period for 3 h every day on the 2nd to the 21st day after the birth of the newborn SD rats, namely, the mother rat in lactation period was taken out of the cage at 8:30 a.m., and then the newborn rats were removed from the initial cage and put to another separate cage, then the cage was transferred to an adjacent room, then the newborn rats were returned to the initial cage 3 h later, namely, at 11:30 such that the newborn rats and the mother rat got together; the newborn rats were weaned on the 22nd day after birth and separated from the initial cage on the 30th day, grouped on the 60th day, and administered, 20 d in total.
Intragastric administration was performed within the administration period once a day with continuous administration for 20 d.
Test indicators: abdominal withdrawal reflex (AWR); test method: rats were fasted 18 h before the experiment and drank water freely, and narcotized with diethyl ether; then an air sac coated with paraffin oil was inserted into the rats’ colorectum for 4.0 cm, and a catheter outside the anus was fixed at the root of the rat tail with an adhesive tape, and connected with an injection syringe and a sphygmomanometer via three links. The rats were put to an organic glass inspection box (20 cmx12 cm×9 cm), after the rats were awake and fully adapted to the environment for 30 min, the experiment was started. 20, 40 and 60 mm Hg of pressure were respectively applied on the rats, and continuous expansion was performed for 20 s each time with a stimulus interval of 4 min; each pressure was performed for 3 times repeatedly for AWR scoring.
At the end of the experiment, the animals were dissected and weighed, and narcotized to take blood, then the content of 5-HT in serum was determined by high performance liquid chromatography. […] slightly with 0.5% sodium carboxymethylcellulose, and then sucked dry with a filter paper, and placed into a cryogenic tube, and preserved at -20° C. for further use, […] chromatography.

SMILES: O=C(Nc1cccc(Cl)c1)C1CCN(C(=O)c2cc(O)ccc2F)CC1 [MAGLZ-II-11 (a)]
- pain threshold of the mice with inflammatory pain, in words ([1]; compared with the model group): significantly extend
- Pain threshold ([1]; high dose 30 mg/kg ig once per day, 0 d): 12.97 ± 2.32 s
- Pain threshold ([1]; high dose 30 mg/kg ig once per day, 1 d): 7.83±1.01^∗∗∗ s
- Pain threshold ([1]; high dose 30 mg/kg ig once per day, 3 d): 9.55±1.58^∗∗∗ s
- Pain threshold ([1]; high dose 30 mg/kg ig once per day, 7 d): 11.00±161.00^∗∗∗ s
- Pain threshold ([1]; low dose 7.5 mg/kg ig once per day, 0 d): 12.96 ± 2.44 s
- Pain threshold ([1]; low dose 7.5 mg/kg ig once per day, 1 d): 7.38±1.19^∗∗∗ s
- Pain threshold ([1]; low dose 7.5 mg/kg ig once per day, 3 d): 8.87±0.74^∗∗∗ s
- Pain threshold ([1]; low dose 7.5 mg/kg ig once per day, 7 d): 9.91±1.05^∗∗∗ s
- Pain threshold ([1]; middle dose 15 mg/kg ig once per day, 0 d): 13.03 ± 2.35 s
- Pain threshold ([1]; middle dose 15 mg/kg ig once per day, 1 d): 7.58±0.84^∗∗∗ s
- Pain threshold ([1]; middle dose 15 mg/kg ig once per day, 3 d): 9.30±0.75^∗∗∗ s
- Pain threshold ([1]; middle dose 15 mg/kg ig once per day, 7 d): 10.66±1.30^∗∗∗ s
- Total times of hematochezia within the four periods (ulcerative colitis mice; high dose 30 mg/kg ig): 27.90±3.73
- Colon length (ulcerative colitis mice; high dose 30 mg/kg ig): 7.56±0.74 cm
- IL-1 content (ulcerative colitis mice; high dose 30 mg/kg ig): 38.61 ± 10.98 pg/mL
- Total times of hematochezia within the four periods (ulcerative colitis mice; low dose 7.5 mg/kg ig): 28.80±7.04
- Colon length (ulcerative colitis mice; low dose 7.5 mg/kg ig): 7.21±1.10 cm
- IL-1 content (ulcerative colitis mice; low dose 7.5 mg/kg ig): 42.01 ± 13.92 pg/mL
- Total times of hematochezia within the four periods (ulcerative colitis mice; middle dose 15 mg/kg ig): 29.10±7.14
- Colon length (ulcerative colitis mice; middle dose 15 mg/kg ig): 7.20±0.97 cm
- IL-1 content (ulcerative colitis mice; middle dose 15 mg/kg ig): 40.70 ± 8.50 pg/mL
- IL-1 content, in words (ulcerative colitis mice; compared with the model group): decrease
- colon length, in words (ulcerative colitis mice; compared with the model group): significantly increase
- total times of hematochezia, in words (ulcerative colitis mice; compared with the model group): reduce
- pain thresholds of the thermal-stimulus mice, in words ([2]; compared with the model group): significantly extend
- Pain threshold ([2]; high dose 30 mg/kg ig 7 d, 30 min after final administration): 39.45 ± 6.75 s
- Pain threshold ([2]; high dose 30 mg/kg ig 7 d, 60 min): 46.56 ± 6.35 s
- Pain threshold ([2]; high dose 30 mg/kg ig 7 d, 90 min): 45.42 ± 6.84 s
- Pain threshold ([2]; high dose 30 mg/kg ig 7 d, 120 min): 43.73 ± 5.68 s
- Pain threshold ([2]; low dose 7.5 mg/kg ig 7 d, 30 min after final administration): 36.18 ± 8.50 s
- Pain threshold ([2]; low dose 7.5 mg/kg ig 7 d, 60 min): 43.17 ± 7.43 s
- Pain threshold ([2]; low dose 7.5 mg/kg ig 7 d, 90 min): 42.83 ± 7.34 s
- Pain threshold ([2]; low dose 7.5 mg/kg ig 7 d, 120 min): 42.16 ± 7.05 s
- Pain threshold ([2]; middle dose 15 mg/kg ig 7 d, 30 min after final administration): 38.16 ± 7.00 s
- Pain threshold ([2]; middle dose 15 mg/kg ig 7 d, 60 min): 45.47 ± 7.03 s
- Pain threshold ([2]; middle dose 15 mg/kg ig 7 d, 90 min): 43.71 ± 5.87 s
- Pain threshold ([2]; middle dose 15 mg/kg ig 7 d, 120 min): 42.34 ± 7.04 s
- latent time, in words ([3]; compared with the model group): extend
- mice writhing times caused by acetic acid, in words ([3]; compared with the model group): significantly decrease
- Writhing times ([3]; high dose 30 mg/kg ig): 12.5±9.4
- Latent time ([3]; high dose 30 mg/kg ig): 488.8 ± 172.0 s
- Inhibition ratio ([3]; high dose 30 mg/kg ig): 68.2%
- Writhing times ([3]; low dose 7.5 mg/kg ig): 22.6±12.0
- Latent time ([3]; low dose 7.5 mg/kg ig): 401.2 ± 168.3 s
- Inhibition ratio ([3]; low dose 7.5 mg/kg ig): 42.5%
- Writhing times ([3]; middle dose 15 mg/kg ig): 18.6±14.6
- Latent time ([3]; middle dose 15 mg/kg ig): 438.9 ± 230.0 s
- Inhibition ratio ([3]; middle dose 15 mg/kg ig): 52.7%
- Colon 5-HT ([4]; high dose 30 mg/kg ig 20 d): 12.65±3.36^∗∗∗ µg/mg
- Serum 5-HT ([4]; high dose 30 mg/kg ig 20 d): 24.05±6.17^∗∗∗ µg/ml
- AWR scoring ([4]; high dose 30 mg/kg ig 20 d, 20 mm Hg): 1.23±0.50^∗∗ ∗
- AWR scoring ([4]; high dose 30 mg/kg ig 20 d, 40 mm Hg): 2.13±0.48^∗∗∗
- AWR scoring ([4]; high dose 30 mg/kg ig 20 d, 60 mm Hg): 2.87±0.46^∗∗∗
- Colon 5-HT ([4]; low dose 7.5 mg/kg ig 20 d): 16.33±2.78^∗∗ µg/mg
- Serum 5-HT ([4]; low dose 7.5 mg/kg ig 20 d): 31.76±5.42^∗∗ µg/ml
- AWR scoring ([4]; low dose 7.5 mg/kg ig 20 d, 20 mm Hg): 2.12±0.36^∗∗ ∗
- AWR scoring ([4]; low dose 7.5 mg/kg ig 20 d, 40 mm Hg): 3.02±0.53^∗
- AWR scoring ([4]; low dose 7.5 mg/kg ig 20 d, 60 mm Hg): 3.58±0.26^∗∗
- Colon 5-HT ([4]; middle dose 15 mg/kg ig 20 d): 14.79±2.73^∗∗∗ µg/mg
- Serum 5-HT ([4]; middle dose 15 mg/kg ig 20 d): 29.89±5.34^∗∗∗ µg/ml
- AWR scoring ([4]; middle dose 15 mg/kg ig 20 d, 20 mm Hg): 1.51±0.43^∗∗ ∗
- AWR scoring ([4]; middle dose 15 mg/kg ig 20 d, 40 mm Hg): 2.52±0.38^∗∗∗
- AWR scoring ([4]; middle dose 15 mg/kg ig 20 d, 60 mm Hg): 3.27±0.48^∗∗∗
- 5-HT level in colon and serum, in words ([4]; compared with the model group): significantly decrease
- AWR scoring, in words ([4]; compared with the model group): significantly decrease
